This is an account of results in patent publication US9079866B2, “Flap modulators” (JANSSEN PHARMACEUTICA NV, priority 2013, dated 2015).

The structures appear in SMILES notation. Where a name gives a salt, the structure may show the parent alone.

One assay concerns leukotriene pathway in human whole blood (LTB4 levels). Put plainly: Human whole blood assay (A23187-stimulated LTB4). The assay is classed as cell-based. To be noted: Homo sapiens, human whole blood diluted 1:1, A23187-stimulated; read-out: LTB4 IC50 1:1. How it is done: The ability of the compounds of the present invention to treat a FLAP-mediated disease and/or disorder, or associated symptoms or complications thereof, was determined using the following procedures. Binding assay data represent the average value obtained from two different assay plates, with samples run in duplicate on each plate. Human whole blood assay data represent a single replicate on an assay plate using whole blood from at least one healthy donor.
An in vitro cellular assay was performed using human whole blood collected in heparin-containing tubes, which was used to test the ability of compounds to modulate the leukotriene pathway in human whole blood. The blood was diluted 1:1 in RPMI medium, pre-incubated for 15 min at 37° Celsius with test compounds at various concentrations, and then stimulated with calcium ionophore, A23187 (7 μg/mL), for 30 min at 37° Celsius. The samples were then centrifuged and plasma was removed. The plasma was diluted in assay buffer and LTB4 levels were measured using a commercial kit (Enzo Life Sciences). The concentration of each compound that was required for half-maximal inhibition (modulation) of recombinant enzyme activity (IC50) was calculated by a 4-parameter equation using the program GraphPad Prism (GraphPad software).
As for `Fc1cc(-c2cccnc2OCC2CC2)ccc1-c1cnc2[nH]ccc2n1` [Example 400, 2-{4-[2-(Cyclopropylmethoxy)pyridin-3-yl]-2-fluorophenyl}-5H-pyrrolo[2,3-b]pyrazine], the IC50 was 729 nM. The same measure, in the same setting: the figure for `Nc1cnc(-c2ccc(-c3cccnc3OC3CCCCC3)cc2F)cn1` [Example 403, 5-{4-[2-(Cyclohexyloxy)pyridin-3-yl]-2-fluorophenyl}pyrazin-2-amine] is 389 nM. On the same count and under the same terms, the figure for `Nc1cnc(-c2ccc(-c3ccccc3O[C@H]3CCCNC3)cc2F)cn1` [Example 634, 5-{3-Fluoro-2′-[(3S)-piperidin-3-yloxy]biphenyl-4-yl}pyrazin-2-amine] is 1470 nM; for `CCC(C)S(=O)(=O)c1ncccc1-c1ccc(-c2cnc(N)cn2)c(F)c1` (racemic) [Example 814, racemic 5-(4-(2-(sec-Butylsulfonyl)pyridin-3-yl)-2-fluorophenyl)pyrazin-2-amine formate] it is 20.9 nM; for `CC(C)(C)NS(=O)(=O)c1ccccc1-c1ccc(-c2cnc(N)nc2)c(F)c1F` [Example 466, 4′-(2-Aminopyrimidin-5-yl)-N-tert-butyl-2′,3′-difluorobiphenyl-2-sulfonamide trifluoroacetic acid salt] it is 990 nM. On the same count and under the same terms, the figure for `N#Cc1nc(-c2ccc(-c3ccccc3S(=O)(=O)N3CCNC(=O)C3)cc2F)cnc1N` [Example 414, 3-Amino-6-{3-fluoro-2′-[(3-oxopiperazin-1-yl)sulfonyl]biphenyl-4-yl}pyrazine-2-carbonitrile] is 120 nM.

Still in this assay, the particulars now being: Homo sapiens, human whole blood diluted 1:1 in RPMI, A23187-stimulated LTB4; read-out: LTB4 IC50 1:1.
For the molecule `CNS(=O)(=O)c1cc(C(F)(F)F)ccc1-c1ccc(-c2cnc(N)cn2)c(F)c1` [Example 208, 4′-(5-Aminopyrazin-2-yl)-3′-fluoro-N-methyl-4-(trifluoromethyl)biphenyl-2-sulfonamide], the IC50 was found to be 14 nM.

`NS(=O)(=O)c1ccccc1-c1ccc(-c2cnc3[nH]ccc3c2)c(F)c1` [Example 368, 3′-Fluoro-4′-(1H-pyrrolo[2,3-b]pyridin-5-yl)biphenyl-2-sulfonamide]: the IC50 is 178 nM. Same read-out and setting: the figure for `Nc1cnc(-c2ccc(-c3ccccc3S(=O)(=O)N3CCN(c4cnccn4)CC3)cc2F)cn1` [Example 176, 5-{3-Fluoro-2′-[(4-pyrazin-2-ylpiperazin-1-yl)sulfonyl]biphenyl-4-yl}pyrazin-2-amine] is 10 nM; for `Nc1cnc(-c2ccc(-c3ccccc3S(=O)(=O)N[C@@H]3c4ccccc4C[C@@H]3O)cc2F)cn1` [Example 161, 4′-(5-Aminopyrazin-2-yl)-3′-fluoro-N-((1R,2S)-2-hydroxy-2,3-dihydro-1H-inden-1-yl)-[1,1′-biphenyl]-2-sulfonamide] it is 48 nM. The same measure, in the same setting: the figure for `CCSc1ccccc1-c1ccc(-c2cnc3[nH]ccc3n2)c(F)c1` [Example 384, 2-[2′-(Ethylsulfanyl)-3-fluorobiphenyl-4-yl]-5H-pyrrolo[2,3-b]pyrazine] is 82 nM; for `O=S1(=O)CCN(S(=O)(=O)c2ccccc2-c2ccc(-c3cnc4[nH]ccc4n3)c(F)c2)CC1` [Example 382, 2-{2′-[(1,1-Dioxidothiomorpholin-4-yl)sulfonyl]-3-fluorobiphenyl-4-yl}-5H-pyrrolo[2,3-b]pyrazine] it is 11 nM; for `CS(=O)(=O)NS(=O)(=O)c1ccccc1-c1ccc(-c2cnc(N)cn2)c(F)c1` [Example 96, 4′-(5-Aminopyrazin-2-yl)-3′-fluoro-N-(methylsulfonyl)biphenyl-2-sulfonamide] it is above 10000 nM. Still for that read-out and setting: the figure for `N#CC1CCCN(S(=O)(=O)c2ccccc2-c2ccc(-c3cnc(N)cn3)c(F)c2)C1` (racemic) [Example 63, racemic 1-{[4′-(5-Aminopyrazin-2-yl)-3′-fluorobiphenyl-2-yl]sulfonyl}piperidine-3-carbonitrile] is 28 nM; for `Nc1cnc(-c2ccc(-c3ccccc3NS(=O)(=O)N3CCCC3)cc2F)cn1` [Example 181, N-[4′-(5-Aminopyrazin-2-yl)-3′-fluorobiphenyl-2-yl]pyrrolidine-1-sulfonamide] it is 240 nM.

The term IC50 denotes the concentration needed to halve the response being measured.
